# Measurements taken from a melting point compilation (Tetko et al.; mined from patent text by program, amines drawn as free bases though some values may be those of a salt).
row,Compound,melting point
1,CN(c1ccccc1)S(=O)(=O)c1ccc(NC(=O)C(C)(O)C(F)(F)F)cc1 (centres undefined),147 to 149 °C
2,CCCCCCCCN(C(=O)Nc1ccc(C(=O)O)cc1)c1ccc2c(c1)C(C)(C)CCC2(C)C,166 to 167 °C
3,CCOC(=O)c1c(C)cc2nc(CO)n(-c3ccc(OC)c(OC)c3)c(=O)c2c1C,181 to 182 °C
4,O=c1[nH]nc2c3c(cccc13)N=C(CN1CCCN(S(=O)(=O)c3ccccc3)CC1)N2,265 to 268 °C
5,CC(C)(C)OC(=O)NCC1(CC(N)=O)CCCCC1,123 to 125 °C
6,CCc1nc(C)c(CCC(=O)N(CC)CC)c(=O)n1Cc1ccc(-c2ccccc2-c2nnn[nH]2)cc1,100 to 105 °C
7,CC(C)NCC(O)COc1cccc2c1CC(=O)N2 (centres undefined),173 to 175 °C
8,CCN1C(c2ccccc2C(=O)c2ccc(Cl)cc2)=NCC1(C)C,85 to 87 °C
9,CC(C)(C)OC(=O)N[C@H]1CCc2ccc(OCCCC(=O)O)cc2C1,150 to 153 °C
10,CNC(=O)Oc1ccccc1Cl,90 to 91 °C
11,COc1cc2nc(N3CCN(C(=O)CC(=O)c4ccccc4)CC3)nc(N)c2cc1OC,214 to 215 °C
12,Nc1ccc2[nH]c(=O)cc(CCN3CCC(c4c[nH]c5ccccc45)CC3)c2c1,214 to 216 °C
13,COc1ccccc1Oc1c(NS(=O)(=O)c2ccc(C)cn2)nc(-c2ccncc2)nc1OC,225 to 226 °C
14,Cc1ccc(-n2c(-c3cc(-c4ccc(S(C)(=O)=O)cc4)c(N4CCOCC4)s3)nc3ccccc3c2=O)cc1,265 to 268 °C
15,CC(C)(C)[Si](C)(C)OCCCC(=O)c1cc(-c2ccc(S(N)(=O)=O)cc2)n(C2CCCCC2)n1,151 to 153 °C
16,O=C(NCCCC[C@@H](C(=O)O)n1c2ccccc2c2ccccc21)c1ccc(C(=O)c2ccccc2)cc1,97 to 98 °C
17,COc1ccc(Sc2cc(Cl)ccc2[N+](=O)[O-])c(C(=O)O)c1,184 to 186 °C
18,CC(C)n1nc(-c2c(Sc3ccccc3)nc(N)nc2-c2ccccc2)ccc1=O,214 to 215 °C
19,COC(C)=CC(=O)NC1CCCCC1,109 °C
20,CCCCCCCCCCCC(=O)OCn1cc(F)c(=O)[nH]c1=O,114 °C
21,Cc1c(-c2ccc(OCc3ccccc3)cc2)n(Cc2ccc(OCCCCl)cc2)c2ccc(OCc3ccccc3)cc12,130 to 132 °C
22,COc1cc2c(cc1OC)C(COCCCl)OCCC2 (centres undefined),90 to 91 °C
23,Cc1c(C)c2c(c(C)c1NC=O)CC(C)(CO)O2 (centres undefined),149 to 150 °C
24,COc1ccc(CCNCC(O)C(=O)O)cc1OC (centres undefined),188 °C

row,Compound,melting point
1,COC(=O)Cn1c(=O)c2ccccc2n(CCCCN2CCC(OC(c3ccccc3)c3ccccc3)CC2)c1=O,91 to 93 °C
2,CCC1CC2C3CCc4cc(OC)ccc4C3CCC2(CC)C1=O (centres undefined),101 to 102 °C
3,CCON=C(CC)C1=C(O)CC(c2ccc(NC(=O)c3ccccc3C)cc2)CC1=O (centres undefined),139 to 140 °C
4,Cc1n[nH]c2c1c(=O)n(-c1ccccc1)c1ncccc21,> 300 °C
5,CC(=O)C1CCCS1(=O)=O (centres undefined),119 to 120 °C
6,COc1nn(CC(C)=O)c(=O)s1,66 to 67 °C
7,c1ccc(CC[C@H]2CN(C3=Nc4ccccc4Sc4ccccc43)CCN2)cc1,48 to 59 °C
8,CN(C)c1ccc2c(c1)C(=O)N(c1ccc3c(c1)CCN3C)C2,268 to 270 °C
9,O=C1NS(=O)Oc2ccccc21 (centres undefined),180 to 182 °C
10,CCc1ccc2c(c1)C=Cc1cc(C)ccc1C2c1cn(-c2ccnc(NCC(=O)Nc3nc(CC(=O)O)cs3)n2)c(=O)[nH]c1=O (centres undefined),217 °C
11,CC(C)OC(=O)CCN=c1sc2ccccc2s1,60 to 61 °C
12,Cc1cc(C)nc(CCOc2ccc(NC(=O)N(C)C)cc2)c1,113 to 114 °C
13,COc1cc(CNC(=O)c2ccc3c(c2)c(=O)n(Cc2ccccc2)c(=O)n3C)ccc1O,183 °C
14,CC(=O)Oc1c(C)c(C)c2c(c1C)C(O)CC(C)(COc1ccc([N+](=O)[O-])cc1)O2 (centres undefined),139 to 141 °C
15,Cn1cc(C2=C(c3c(S(C)=O)n(C)c4ccccc34)C(=O)NC2=O)c2ccccc21 (centres undefined),300 °C
16,CCCCCCCCOc1ccc(C#N)c(O)c1,69 to 71 °C
17,NC(=O)c1nn(-c2ccc(S(N)(=O)=O)cc2)c2ccncc12,301 to 302 °C
18,COC(=O)C1CCc2nc(N)sc2C1 (centres undefined),148 to 168 °C
19,CC(=O)Oc1cc(C)cc(C(=O)Cl)c1C,52 to 54 °C
20,CCCCS(=O)(=O)N(C)CCN1CC(c2ccc3c(c2)OCO3)C(C(=O)O)C1c1ccc(OC)cc1 (centres undefined),64 to 66 °C
21,O=C(O)C(Cc1ccccc1)Nc1nccc(-c2ccc(OCc3ccccc3)cc2)n1 (centres undefined),174 °C
22,Cc1c(C(=O)NC2C3(C)CCC(C3)C2(C)C)c2ccc(Cl)c(Cl)c2n1CCCNS(C)(=O)=O (centres undefined),150 to 154 °C
23,Cc1cc(C(=O)CBr)cn1S(=O)(=O)c1ccccc1,86 to 88 °C

# Other lines, results leading:
row,melting point,Compound
1,> 250 °C,NCC1Cc2cccc(Nc3cc(Cl)cc(Cl)c3)c2O1 (centres undefined)
2,100 to 104 °C,Cc1nc(-c2cnccn2)no1
3,> 230 °C,CC(C)(Cn1c(N)nc2c(N)nc3ccccc3c21)NS(C)(=O)=O
4,131 °C,CC1(C(O)(C=Cc2ccc(Cl)cc2)Cn2cncn2)CC1(F)F (centres undefined)
5,112 to 113 °C,Oc1ccccc1-c1nnco1
6,171 to 175 °C,N#CC(=Cc1ccc2[nH]ccc2c1)S(=O)(=O)c1ccc(OC(F)(F)F)cc1
7,208 °C,O=Cc1c(Cl)ccc2cc(Cl)cnc12
8,65 to 69 °C,COC(=O)C1CCCCc2c(-c3ccc(Cl)cc3)noc2C1 (centres undefined)
9,160 °C,Clc1cccc(C2=Nc3cccnc3Nc3ccccc32)c1
10,147 to 149 °C,Cc1cc(NC2=NCCN2C(=O)c2ccccc2)n(C)n1
11,111 to 115 °C,CCOC(=O)c1ccc(C=CCN2CCc3nc(N)sc3CC2)cc1
12,167 to 170 °C,COc1ccc(C=O)c2cc(C)oc12
13,176 to 178 °C,O=Cc1cc(Cl)c(O)c(O)c1Cl
14,240 to 241 °C,Cc1cc(=O)n2cccc(S)c2n1
15,182 to 185 °C,Cc1nnnn1-c1ccc(/C(=C\C2CCCC2)C(=O)O)cc1F
16,117 °C,COc1ccc(-n2nnnc2C(F)(F)F)cc1C=O
17,344 to 347 °C,O=C1c2cccc3c4c(cc(c23)C(=O)N1O)OCCO4
18,136 to 137 °C,CCOC(=O)c1cccc(-c2cc(C(=O)OCC)c(N)[nH]2)c1
19,173 to 174 °C,CCCCCc1cc2c(cc1/C=C/c1ccc(C(=O)O)cc1)C(C)(C)CCC2(C)C
20,127 to 131 °C,COc1ccc(C(=O)Cc2c(Cl)cncc2Cl)c2c1OC(C)(C)C2
21,175 to 178 °C,Cc1cc(-c2nncc3c(C(C)(C)C)c(OCc4ccccn4)nn23)no1
22,37 to 38 °C,Fc1c(Cl)cccc1/C=C/c1noc(C(Cl)(Cl)Cl)n1
23,129 to 130 °C,c1nc(-c2ccc(CN3CCCCCC3)s2)n[nH]1
24,169 to 171 °C,CC(=O)Oc1ccccc1C(=O)Nc1ccc2oc(C)nc2c1
25,182 to 184 °C,COc1ccc(S(=O)(=O)C2(CCC/C=C/c3ccc(Cl)cc3)SC(=O)NC2=O)cc1 (centres undefined)
26,238 to 240 °C,COc1ccc2c(c1)OCC(/C=C/C=C/C=C/C(=O)O)=C2
27,118 to 119 °C,CC(C)(O)C#Cc1cccc(N)c1
